Measured values as given in article PMC3715890, “A Cyclic Peptide Inhibitor of HIF-1 Heterodimerization That Inhibits Hypoxia Signaling in Cancer Cells” (Journal of the American Chemical Society, 2013).
Entries after “also recorded” stand apart in the source; their conditions may differ. Values belong to the molecule of their own block, whether it stands above or below them.

Experiments:
[1] = tested on: MCF-7 cells; test: CyQUANT cell proliferation assay, MCF-7; assay type: cell-based; conditions: 1 μM, positive control, 72 h
Protocol: Sulforhodamine B cytotoxicity assay […]
incubated in hypoxia for 24h.
O.D. value of the experimental set.
CyQUANT cell proliferation assay
The cells were incubated for 5 hours and then treated with Tamoxifen or P1. After 24, 48 or 72 hours, the media was […]
C35006) following the manufacturers instructions. Fluorescence measurements were […]
Workman, P.; Ashcroft, M. Cancer Res 2005, 65, 4918.

[2] = tested on: HIF-1 (HIF-dependent luciferase reporter, U2OS-HRE-luc cells); test: HIF-1-dependent luciferase reporter assay, U2OS-HRE-luc; assay type: cell-based, human
Protocol: (§1) The ability of P1–P3 to disrupt HIF-1 function in cells was assessed using a HIF-1-dependent luciferase reporter assay.[15],[21] The assay uses human osteosarcoma U2OS cells, stably transfected with a HIF-dependent luciferase reporter construct (U2OS-HRE-luc), where activation of HIF results in an increase in luciferase expression.[15]
(§2) Endogenous HIF-1 luciferase reporter assays were conducted as previously reported in U2OS-HRE-luc[15] and MCF-7 cells.[46] For plasmid-expressed HIF-α luciferase reporter assays, MCF-7 and U2OS cells were transiently transfected with plasmids expressing HIF-1α, HIF-2α, or a blank control (pcDNA3.1-HIF-1α, pcDNA3.1-HIF-2α, or pcDNA3.1), a renilla-encoding control (phRL-TK), and a HIF-dependent firefly luciferase reporter construct (pGL2-TK-HRE), using Transfast (Promega) according to the manufacturer’s instructions. After 24 h, cells were recovered and plated (4000 cells/well) in 96-well plates (Perkin-Elmer) and incubated for 5 h before either hypoxic or aerobic incubation in presence or absence of cyclic peptide inhibitors. Firefly and renilla activities were determined using Dual-Glo Reagent (Promega) according to the manufacturer’s instructions. The luciferase signal was normalized using the corresponding renilla values.
Cells were treated with the stated concentrations of inhibitor (P1, P2, or P3) and incubated in normoxia for 4 h, followed by incubation in a hypoxic environment. All manipulation of cell pellets (e.g., lysis, mRNA, and protein extraction) was conducted in a hypoxic environment.

[3] = tested on: HIF-1 (HIF-dependent luciferase reporter, MCF-7 breast cancer cells); test: HIF-1-dependent luciferase reporter assay, MCF-7; assay type: cell-based; conditions: MCF-7, 100 μM
Protocol: as §1
as §2, with “values. […]” for “values.”

[4] = tested on: His-HIF-1α1–350; test: Fluorescent binding assay, HIF-1α; conditions: fluorescence at 680 nm, Ni2+-coated plate, 5 µL of 100 µM solution in 95 µL buffer, 1 hour, room temperature
[5] = tested on: His-HIF-2α1–351; test: Fluorescent binding assay, HIF-2α; conditions: fluorescence at 680 nm, Ni2+-coated plate, 5 µL of 100 µM solution in 95 µL buffer, 1 hour, room temperature
[6] = target: T1, PAS-B domain of HIF-1α (Homo sapiens, UniProt Q16665); test: Fluorescent binding assay, PAS-B; conditions: fluorescence at 680 nm, Ni2+-coated plate
T1 construct: Per-ARNT-Sim-B (PAS-B, amino acids 235–350) domains; His (N); made in house; host or cells: E. coli BL21(DE3)
T1 sequence (Q16665 235-350): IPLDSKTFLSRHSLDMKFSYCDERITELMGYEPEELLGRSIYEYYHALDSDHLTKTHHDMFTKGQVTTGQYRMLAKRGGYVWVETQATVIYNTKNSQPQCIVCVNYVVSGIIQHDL

[7] = tested on: bHLH domain of HIF-1α; test: Fluorescent binding assay, bHLH; conditions: fluorescence at 680 nm, Ni2+-coated plate
[8] = tested on: PAS-A domain of HIF-1α; test: Fluorescent binding assay, PAS-A; conditions: fluorescence at 680 nm, Ni2+-coated plate
[9] = tested on: U2OS-luc control cell line stably expressing luciferase; test: Control constitutive luciferase reporter, U2OS-luc; assay type: cell-based, human
Excerpt: Figure S3: Identification of cyclic peptide HIF-1 inhibitors. (A) SICLOPPS expression is induced by arabinose, which processes to give a member of the cyclic peptide library. A dimerization inhibitor would be expected to rescue growth of the HIF-1 RTHS on selective media plates containing IPTG, kanamycin and 3-amino-triazole, and arabinose. (B) The ability of the selected cyclic peptides to […]
HIF-1 RTHS containing the corresponding SICLOPPS plasmid onto selective media. In the absence of arabinose the SICLOPPS split-intein is not produced; the HIF-1 RTHS containing plasmids encoding […]
colonies show survival on selective media plates containing IPTG and arabinose (panel 2). Expressing the 3 selected cyclic peptides from mutant SICLOPPS inteins (H24A, F26A mutations in the C- […]
cyclic form of the peptides and their activity. […]
expressing a constitutive luciferase reporter construct. […]

[10] = tested on: HIF-2 (HIF-dependent luciferase reporter, MCF-7 cells); test: HIF-2 luciferase reporter assay, MCF-7; assay type: cell-based; conditions: MCF-7, transfected HIF-2α
Excerpt: (§3) In addition, P1 had no effect on VEGF protein levels in hypoxic 786-O cells (Figure 6B). To further probe the effect of P1 on HIF-2, a luciferase reporter assay was developed and used. The assay was derived from the HIF-1 luciferase reporter assay detailed above (Figure 2C and D) and adapted for HIF-2 by replacing the plasmid encoding HIF-1α with the equivalent plasmid encoding HIF-2α. […] P2 and P3 also had no effect on HIF-2 in this assay (Figure S9).
as §2

[11] = tested on: HIF-2 (HIF-dependent luciferase reporter, U2OS cells); test: HIF-2 luciferase reporter assay, U2OS; assay type: cell-based, human; conditions: transfected HIF-2α
Excerpt: as §3, §2

[12] = tested on: HIF-1α/HIF-1β protein–protein interaction; test: HIF-1 bacterial reverse two-hybrid system (RTHS), SICLOPPS-expressed cyclic peptides, drop-spotting; assay type: cell-based; conditions: E. coli HIF-1 RTHS, cyclic peptide expressed from SICLOPPS plasmid, 10-fold serial dilutions, compared with the other potential inhibitors
Excerpt: We used our genetically encoded high-throughput screening platform[23]−[25] to identify inhibitors of the HIF-1α/HIF-1β protein–protein interaction. We built and verified the function of a HIF-1 bacterial reverse two-hybrid system (RTHS, for a detailed description see the Supporting Information and Figures S1–S3). The HIF-1 RTHS was used to screen a plasmid-encoded SICLOPPS (split intein circular ligation of peptides and proteins)[26],[27] library of 3.2 million cyclic hexapeptides for HIF-1 dimerization inhibitors.
After the first round of screening, 120 surviving colonies were observed and subjected to several rounds of secondary screening to eliminate false positives and nonselective inhibitors, leaving 12 potential HIF-1 dimerization inhibitors that were ranked by drop-spotting.
The HIF-1 RTHS, associated control RTHS, and SICLOPPS library were constructed as detailed in the Supporting Information. Electrocompetent cells of the HIF-1 RTHS were prepared and transformed with the C+5 SICLOPPS plasmid library. Transformation efficiency, assessed by plating 10-fold serial dilutions of the recovery solution on LB agar supplemented with chloramphenicol (35 μg/mL), was consistently found to be ∼5 × 10^7, thus ensuring adequate coverage of the 3.2 × 10^6 member cyclic peptide library. Transformants were washed with minimal media and plated onto minimal media agar plates supplemented with ampicillin (50 μg/mL), spectinomycin (25 μg/mL), kanamycin (50 μg/mL), 3-AT (7.5 μM), IPTG (100 μM), L-arabinose (6.5 μM), and chloramphenicol (35 μg/mL). The plates were incubated for 2–3 days at 37 °C until individual colonies were visible. Colonies were picked and restreaked onto LB agar plates containing ampicillin (50 μg/mL), spectinomycin (25 μg/mL), and chloramphenicol (35 μg/mL) and incubated overnight at 37 °C.
Surviving colonies from these plates were grown overnight and assessed by drop-spotting 10-fold serial dilutions onto minimal media plates, supplemented with antibiotics, IPTG and 3-AT as above, with and without 6.5 μM L-arabinose. […]

Molecule: CC/C(=C(\c1ccc(O)cc1)c1ccc(OCCN(C)C)cc1)c1ccccc1 [4-hydroxytamoxifen, reference compound]
proliferation of MCF-7 cells [1]: inhibited proliferation; also recorded: arrests cell division

Molecule: CGRKKRRQRRRPPQ [Tat-tag, Tat-tag alone, control, reference compound]
effect on luciferase signal, Tat-tag alone ([2]; U2OS, 100 μM): did not affect the luciferase signal
effect on luciferase signal, Tat-tag alone [3]: did not affect the luciferase signal

binding to His-HIF-1α1–350 [4]: observed binding
binding to His-HIF-2α1–351 [5]: close to background levels
binding to PAS-B domain of HIF-1α [6]: binds the PAS-B domain of HIF-1α
binding to bHLH domain of HIF-1α [7]: close to background level
binding to PAS-A domain of HIF-1α [8]: close to background level
Molecule: Megastokes dye 673-triazole-(cyclo-ALLFVY) (head to tail) [fluorescent derivative of cyclo-CLLFVY, propargylalanine derivative of cyclo-CLLFVY click-linked to azide-Megastoke dye 673]

Molecule: Tat-cyclo-CLLRMY (head to tail) [P3, cyclo-CLLRMY tagged with Tat peptide via a disulfide bond]
effect on luciferase reporter in hypoxia ([2]; U2OS-HRE-luc, hypoxia (1% O2)): did not show an effect
effect on luciferase reporter in normoxia (basal) ([2]; U2OS-HRE-luc, normoxia): did not show an effect
effect on constitutive luciferase signal [9]: do not affect
effect on HIF-2 luciferase reporter signal [10]: do not affect
effect on HIF-2 luciferase reporter signal [11]: do not affect

Molecule: cyclo-CLLFVY (head to tail)
activity ranking by drop-spotting in HIF-1 RTHS [12]: significantly more active than the others

Molecule: cyclo-CLLRMY (head to tail)
activity ranking by drop-spotting in HIF-1 RTHS [12]: significantly more active than the others

Molecule: cyclo-CRLMVL (head to tail)
activity ranking by drop-spotting in HIF-1 RTHS [12]: significantly more active than the others
